# Target: T1, GST-AMPKγ2 subunit fusion (Homo sapiens, UniProt Q9UGJ0)
# T1 construct: A C-terminal fragment of AMPKγ2 bearing CBS domains 1-4 (247-569) was expressed in; made in house; host or cells: E. coli
# Experiment: Competitive elution of AMPKγ2 from ATP-Sepharose
# Format: binding
# Details: C2 and AMP to the same extent
# Procedure: Supplemental Figure Legends:
# Figure S1, related to Figures 1-3. Subunit composition of AMPK preparations used in this study. (A) Heterotrimeric AMPK complexes (10 ng) produced in both Sf9 (Sigma and Signalchem) and E.coli (in our laboratory) were analysed by Western blotting using isoform specific antibodies. Note that both the α2/α1-HOOK and α2/α1-LOOP chimeras are no longer recognised by the anti-α2 antibody as the epitope has been replaced (see Fig S4). (B) Heterotrimeric AMPK α2/α1 chimeric complexes expressed in E.coli (2 μg) were separated by SDS-PAGE and stained with Coomassie G-250. Arrows indicate the position of the […]
# Figure S2, related to Figure 1. C2 has negligible effects on a panel of 138 protein kinases.
# Kinase inhibition screen was performed by the International Centre for Kinase profiling (Dundee). Assays were performed in duplicate using 10 µM C2 and are representative of two independent screens. Results are shown in rank order as mean % activity compared with controls in the absence of compound ± SD. […]
# Figure S3, related to Figure 2. […] Results are expressed as mean Pi incorporated in nmol.min-1.mg-1 ± SD. […] Results are expressed as fold increase in activity relative to controls in the absence of compound ± SD.
# (E) C2 and AMP displace a GST-AMPKγ2 subunit fusion from ATP-γ-Sepharose. […] The presence of eluted AMPKγ2 was analysed by SDS-PAGE and staining with colloidal Coomassie. […]
# T1 sequence (Q9UGJ0 247-569): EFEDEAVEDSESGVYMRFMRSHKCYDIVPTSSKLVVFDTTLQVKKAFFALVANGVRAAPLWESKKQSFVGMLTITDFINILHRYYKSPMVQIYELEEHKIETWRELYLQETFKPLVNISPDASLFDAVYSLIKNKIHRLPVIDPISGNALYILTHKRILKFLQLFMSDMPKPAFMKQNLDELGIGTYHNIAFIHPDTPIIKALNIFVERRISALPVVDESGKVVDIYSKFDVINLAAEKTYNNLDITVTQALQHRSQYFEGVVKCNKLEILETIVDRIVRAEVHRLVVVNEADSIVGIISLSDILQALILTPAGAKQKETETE
row,Structure (SMILES),displacement from ATP-γ-Sepharose
1,"O=P(O)(O)c1ccc(-c2cc(O)on2)o1 [Compound C2, 5-(5-hydroxyl-isoxazol-3-yl)-furan-2-phosphonic acid]",displaced
2,"Nc1ncnc2c1ncn2[C@@H]1O[C@H](COP(=O)(O)O)[C@@H](O)[C@H]1O [AMP, reference compound]",displaced
